Data published in article PMC11440591 (Journal of Medicinal Chemistry, 2024).
Like-named read-outs stand apart in the source and are kept apart here.

Legend:
EBOV = settings: cited from earlier work
VeroE6 cells = settings: cited from earlier work
[1] = test system: pseudotypes with the SUDV envelope (pSUDV); assay: microbe, parasite or virus in culture; format: cell-based; settings: Sudan ebolavirus, read-out: EC50 (pSUDV)
[2] = test system: VSV-G-pseudotype virus (pVSV-G); assay: microbe, parasite or virus in culture; format: cell-based; settings: Vesicular stomatitis virus, read-out: %inh@10µM (pVSV-G)
in vitro [3] = settings: chlorocebus sabaeus
[4] = test system: EBOV-GP-pseudotyped virus (pEBOV); assay: microbe, parasite or virus in culture; settings: Vesicular stomatitis virus, Vero C1008, 24 h, read-out: EC50 (pEBOV)
[5] = test system: wild-type Zaire EBOV Mayinga 1976 strain (EBOV May); assay: microbe, parasite or virus in culture; settings: Zaire ebolavirus, Vero C1008, 72 h, read-out: EC50 (EBOV May)
[6] = target: EBOV-GPcl/NPC1-domain C interaction (Zaire ebolavirus, UniProt Q05320); format: binding, EBOV; Homo sapiens
[7] = male, BALB/c, mouse, in vivo
in vivo [8] = settings: male, BALB/c, mouse
in vivo [9] = settings: both, C57BL/6, mouse, po
in vitro [10] = settings: human, microsomes, pH 7.4
in vitro [11] = settings: CD-1, mouse, microsomes, pH 7.4
hERG potassium channel [12] = target: T1, hERG potassium channel (Homo sapiens, UniProt Q12809); assay: in vitro
Nav1.5 = Nav1.5 (Homo sapiens, UniProt Q14524); assay: in vitro
hERG potassium channel [13] = target: T1, hERG potassium channel; assay: cell-based
EBOV like particles = settings: cited from earlier work
[14] = test system: EBOV-GP-pseudotyped virus (pEBOV)
[15] = test system: wild-type Zaire EBOV Mayinga 1976 strain (EBOV May)

T1 sequence (Q12809 whole entry): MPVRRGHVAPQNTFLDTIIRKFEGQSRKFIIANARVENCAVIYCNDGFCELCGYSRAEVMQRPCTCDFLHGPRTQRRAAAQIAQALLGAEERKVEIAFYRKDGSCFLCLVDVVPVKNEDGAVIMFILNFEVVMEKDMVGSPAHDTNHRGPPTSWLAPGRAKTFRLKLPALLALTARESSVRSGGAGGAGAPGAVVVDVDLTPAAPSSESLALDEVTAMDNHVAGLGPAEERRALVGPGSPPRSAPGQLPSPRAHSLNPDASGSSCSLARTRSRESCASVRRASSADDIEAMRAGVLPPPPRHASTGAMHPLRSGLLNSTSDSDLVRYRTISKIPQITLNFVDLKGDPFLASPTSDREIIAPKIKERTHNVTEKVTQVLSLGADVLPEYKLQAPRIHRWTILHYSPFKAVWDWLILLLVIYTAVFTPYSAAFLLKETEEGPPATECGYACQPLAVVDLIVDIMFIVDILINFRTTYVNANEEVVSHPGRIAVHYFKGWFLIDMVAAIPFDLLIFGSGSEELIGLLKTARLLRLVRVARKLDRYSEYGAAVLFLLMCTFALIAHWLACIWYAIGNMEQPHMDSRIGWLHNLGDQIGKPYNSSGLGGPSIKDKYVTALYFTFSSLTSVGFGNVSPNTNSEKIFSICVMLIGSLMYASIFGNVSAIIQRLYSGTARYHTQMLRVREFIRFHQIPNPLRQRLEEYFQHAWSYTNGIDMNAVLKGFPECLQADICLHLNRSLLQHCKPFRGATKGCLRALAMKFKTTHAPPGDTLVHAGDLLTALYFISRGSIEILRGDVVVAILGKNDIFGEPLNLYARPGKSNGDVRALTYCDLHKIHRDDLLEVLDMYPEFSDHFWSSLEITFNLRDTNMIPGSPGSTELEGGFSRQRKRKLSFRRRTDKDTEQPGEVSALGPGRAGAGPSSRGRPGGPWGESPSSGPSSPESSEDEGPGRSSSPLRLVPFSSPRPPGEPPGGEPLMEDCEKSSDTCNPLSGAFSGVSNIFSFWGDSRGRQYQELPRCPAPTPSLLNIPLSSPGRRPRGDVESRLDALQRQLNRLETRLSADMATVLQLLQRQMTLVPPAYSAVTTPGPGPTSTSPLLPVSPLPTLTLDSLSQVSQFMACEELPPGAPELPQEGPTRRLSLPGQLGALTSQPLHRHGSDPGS
EBOV-GPcl/NPC1-domain C interaction, sequence (Q05320 33-190 limits assumed): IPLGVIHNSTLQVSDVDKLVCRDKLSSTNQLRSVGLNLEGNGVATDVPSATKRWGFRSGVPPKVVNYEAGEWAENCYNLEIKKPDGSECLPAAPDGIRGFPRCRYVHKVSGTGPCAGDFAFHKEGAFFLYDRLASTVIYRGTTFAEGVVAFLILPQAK
EBOV-GPcl/NPC1-domain C interaction, sequence (Q05320 502-676 limits assumed): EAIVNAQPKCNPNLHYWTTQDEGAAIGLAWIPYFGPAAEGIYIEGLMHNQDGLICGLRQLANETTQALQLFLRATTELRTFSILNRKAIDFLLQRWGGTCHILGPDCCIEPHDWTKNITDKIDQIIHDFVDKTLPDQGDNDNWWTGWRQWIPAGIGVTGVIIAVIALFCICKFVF
Nav1.5, sequence (Q14524 whole entry): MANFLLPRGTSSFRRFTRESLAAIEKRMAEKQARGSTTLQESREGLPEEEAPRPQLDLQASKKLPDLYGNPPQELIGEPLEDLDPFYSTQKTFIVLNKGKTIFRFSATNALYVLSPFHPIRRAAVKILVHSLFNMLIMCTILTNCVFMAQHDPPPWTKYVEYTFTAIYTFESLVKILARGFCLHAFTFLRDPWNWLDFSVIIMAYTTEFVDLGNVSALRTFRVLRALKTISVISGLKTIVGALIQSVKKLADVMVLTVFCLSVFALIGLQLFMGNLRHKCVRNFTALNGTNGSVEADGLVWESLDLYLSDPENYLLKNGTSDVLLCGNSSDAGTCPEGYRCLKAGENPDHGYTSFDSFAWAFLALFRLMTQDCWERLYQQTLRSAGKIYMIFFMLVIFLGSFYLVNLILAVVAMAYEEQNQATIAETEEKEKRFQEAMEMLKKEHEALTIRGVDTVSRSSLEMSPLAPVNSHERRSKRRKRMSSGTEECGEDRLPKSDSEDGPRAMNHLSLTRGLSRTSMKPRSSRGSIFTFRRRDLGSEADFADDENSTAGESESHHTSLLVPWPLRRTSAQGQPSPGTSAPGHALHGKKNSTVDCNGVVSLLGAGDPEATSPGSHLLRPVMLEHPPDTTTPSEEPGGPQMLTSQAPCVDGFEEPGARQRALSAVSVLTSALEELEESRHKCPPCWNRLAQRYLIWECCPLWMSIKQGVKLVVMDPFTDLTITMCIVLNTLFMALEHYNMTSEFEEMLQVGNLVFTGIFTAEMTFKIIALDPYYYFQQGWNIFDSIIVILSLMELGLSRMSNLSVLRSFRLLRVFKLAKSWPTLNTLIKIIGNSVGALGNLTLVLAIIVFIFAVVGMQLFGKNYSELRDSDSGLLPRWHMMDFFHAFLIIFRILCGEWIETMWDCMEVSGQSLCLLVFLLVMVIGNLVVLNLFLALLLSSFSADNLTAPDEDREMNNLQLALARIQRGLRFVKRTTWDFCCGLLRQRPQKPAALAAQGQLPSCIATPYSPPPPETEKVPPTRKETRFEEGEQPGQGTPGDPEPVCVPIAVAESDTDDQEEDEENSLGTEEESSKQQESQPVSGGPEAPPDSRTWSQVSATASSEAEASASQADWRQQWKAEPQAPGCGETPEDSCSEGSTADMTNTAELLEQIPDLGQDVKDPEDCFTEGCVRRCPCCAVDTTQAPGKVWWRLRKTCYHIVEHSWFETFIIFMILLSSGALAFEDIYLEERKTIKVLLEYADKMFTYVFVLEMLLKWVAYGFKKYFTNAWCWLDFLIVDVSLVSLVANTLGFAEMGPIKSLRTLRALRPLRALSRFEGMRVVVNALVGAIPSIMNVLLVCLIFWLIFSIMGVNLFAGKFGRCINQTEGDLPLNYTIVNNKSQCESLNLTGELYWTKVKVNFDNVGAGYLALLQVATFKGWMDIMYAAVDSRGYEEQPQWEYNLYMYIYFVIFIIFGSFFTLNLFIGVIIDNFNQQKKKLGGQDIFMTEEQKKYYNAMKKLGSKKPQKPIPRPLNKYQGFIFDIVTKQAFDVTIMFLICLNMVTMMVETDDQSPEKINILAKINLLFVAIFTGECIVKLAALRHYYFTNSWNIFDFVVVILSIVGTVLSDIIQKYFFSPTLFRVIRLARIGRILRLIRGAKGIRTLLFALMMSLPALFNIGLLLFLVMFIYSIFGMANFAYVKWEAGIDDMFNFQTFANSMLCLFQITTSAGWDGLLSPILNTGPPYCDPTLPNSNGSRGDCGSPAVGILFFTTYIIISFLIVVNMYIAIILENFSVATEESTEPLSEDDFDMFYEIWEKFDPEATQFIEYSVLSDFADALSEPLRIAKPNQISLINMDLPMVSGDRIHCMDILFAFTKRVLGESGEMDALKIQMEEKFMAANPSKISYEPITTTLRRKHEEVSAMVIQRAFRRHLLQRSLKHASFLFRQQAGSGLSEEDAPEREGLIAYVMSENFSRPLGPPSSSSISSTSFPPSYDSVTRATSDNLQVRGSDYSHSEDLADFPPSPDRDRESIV

In the case of NC(=O)c1nc(F)cnc1O [Favipiravir, favipiravir], the IC50 (EBOV) is listed as 67 µM and the CC50 (VeroE6 cells) is listed as over 1000 µM.

Work on O=C(Nc1ccccc1)c1ccc(-c2cccc(OC3CCNCC3)c2)s1 [compound 53, N-Phenyl-5-(3-(piperidin-4-yloxy)phenyl)thiophene-2-carboxamide] yielded an EC50 [1] of 3.05 µM, an inhibition at 10 µM [2] of 7% and a CC50 at 24 h (in vitro [3]) of 33.9 µM. The EC50 [4] was 7.19 µM and the EC50 [5] was 0.3 µM.

For CN(C)CCOc1ccc(/C(=C(/CCCl)c2ccccc2)c2ccccc2)cc1 [Toremifene, toremifene], the CC50 (VeroE6 cells) is listed as 16 µM.

With O=C(Nc1ccccc1)c1ccc(-c2ccc(OC3CCNCC3)cc2)s1 [compound 57, N-Phenyl-5-(4-(piperidin-4-yloxy)phenyl)thiophene-2-carboxamide] the EC50 [1] was 1.68 µM, the inhibition at 10 µM [2] was 24% and the “inhibitory effect on EBOV-GPcl/NPC1-domain C interaction (in words)” value [6] was “comparable effect than the control imipramine”. For the same compound, the brain concentration ([7]; ip, 10 mg/kg) was 4430 nM, the estimated plasma concentration ([7]; ip, 10 mg/kg) was 2.74 µM and the brain concentration ([7]; po, 50 mg/kg) was 14800 nM. The estimated plasma concentration ([7]; po, 50 mg/kg) was 2.04 µM, the half-life at 24 h (in vivo [8]; ip, 10 mg/kg) was 5.18 h and the Cmax (in vivo [8]; ip, 10 mg/kg) was 1680 ng/mL. For the same compound, the Cmax at 24 h (in vivo [8]; ip, 10 mg/kg) was 1040 ng/mL, the Tmax (in vivo [8]; ip, 10 mg/kg) was 4 h and the Tmax at 24 h (in vivo [8]; ip, 10 mg/kg) was 0.5 h. The half-life at 24 h (in vivo [8]; po, 50 mg/kg) was 8.76 h, the Cmax (in vivo [8]; po, 50 mg/kg) was 773 ng/mL and the Cmax at 24 h (in vivo [8]; po, 50 mg/kg) was 5600 ng/mL. The Tmax (in vivo [8]; po, 50 mg/kg) was 4 h, the Tmax at 24 h (in vivo [8]; po, 50 mg/kg) was 2 h and the MTD (in vivo [9]) was 100 mg/kg. It also gave a CC50 at 24 h (in vitro [3]) of 11 µM, a half-life at 1 h, 10 µM (in vitro [10]) of 2.17 ± 0.15 h and a half-life at 1 h, 10 µM (in vitro [11]) of 0.483 ± 0.0833 h. It also gave an IC50 (hERG potassium channel [12]) of 48.9 µM, an IC50 (Nav1.5) of over 50 µM and an IC50 (hERG potassium channel [13]) of about 50 µM. The EC50 [4] was 8.16 µM and the EC50 [5] was 0.19 µM.

In the case of COC(=O)c1ccc(COc2ccccc2CN2CCN(C(=O)CNC(=O)CC34CC5CC(CC(C5)C3)C4)CC2)cc1 [3.47], the EC50 (EBOV) is given as 0.16 µM.

In the case of CN(C)CCCN1c2ccccc2CCc2ccccc21 [Imipramine, imipramine], the IC50 (EBOV like particles) is listed as 13.2 µM.

In the case of O=C(Nc1ccccc1)c1ccc(-c2ccccc2OC2CCNCC2)s1 [compound 1, N-Phenyl-5-(2-(piperidin-4-yloxy)phenyl)thiophene-2-carboxamide], the EC50 [1] is reported as 2.64 µM, the inhibition at 10 µM [2] is reported as 0.66% and the “inhibitory effect on EBOV-GPcl/NPC1-domain C interaction (in words)” value [6] is reported as “comparable effect than the control imipramine”. For the same compound, the brain concentration ([7]; ip, 10 mg/kg) was 330 nM, the estimated plasma concentration ([7]; ip, 10 mg/kg) was 0.32 µM and the brain concentration ([7]; po, 50 mg/kg) was 810 nM. For the same compound, the estimated plasma concentration ([7]; po, 50 mg/kg) was 0.29 µM, the half-life at 24 h (in vivo [8]; ip, 10 mg/kg) was 1.96 h and the Cmax at 24 h (in vivo [8]; ip, 10 mg/kg) was 122 ng/mL. For the same compound, the half-life at 24 h (in vivo [8]; po, 50 mg/kg) was 5.6 h, the CC50 at 24 h (in vitro [3]) was 34 µM and the IC50 (hERG potassium channel [12]) was 10.6 µM. It also gave an IC50 (Nav1.5) of 20.4 µM, an EC50 [4] of 5.91 µM and an EC50 [5] of 1.5 µM.

With O=C(NCCC1CCN(Cc2ccccc2)CC1)c1ccc(-c2ccccc2OC2CCNCC2)s1 [compound 51, N-(2-(1-Benzylpiperidin-4-yl)ethyl)-5-(2-(piperidin-4-yloxy)phenyl)thiophene-2-carboxamide] the inhibition at 10 µM [2] was -148%, the “SI (CC50/EC50)” value [14] was 2 and the “SI (CC50/EC50)” value [15] was 6.6. It also gave a CC50 at 24 h (in vitro [3]) of 19.5 µM, an EC50 [4] of 9.3 µM and an EC50 [5] of 2.96 µM.

With O=C(NCCc1ccccc1)c1ccc(-c2ccccc2OC2CCNCC2)s1 [compound 49, N-Phenethyl-5-(2-(piperidin-4-yloxy)phenyl)thiophene-2-carboxamide] the inhibition at 10 µM [2] was -160%, the “SI (CC50/EC50)” value [14] was 5.6 and the “SI (CC50/EC50)” value [15] was 36.9. It also gave a CC50 at 24 h (in vitro [3]) of 29.2 µM, an EC50 [4] of 5.2 µM and an EC50 [5] of 0.79 µM.

In the case of O=C(Nc1ccc(Cl)cc1)c1ccc(-c2ccccc2OC2CCNCC2)o1 [compound 99, N-(4-Chlorophenyl)-5-(2-(piperidin-4-yloxy)phenyl)furan-2-carboxamide], the inhibition at 10 µM [2] is reported as 10%, the “SI (CC50/EC50)” value [14] is reported as 3.1 and the “SI (CC50/EC50)” value [15] is reported as 7.9. For the same compound, the CC50 at 24 h (in vitro [3]) was 20 µM, the EC50 [4] was 6.35 µM and the EC50 [5] was 2.53 µM.

In the case of O=C(Nc1ccc(N2CCOCC2)cc1)c1ccc(-c2ccccc2OC2CCNCC2)s1 [compound 50, N-(4-Morpholinophenyl)-5-(2-(piperidin-4-yloxy)phenyl)thiophene-2-carboxamide], the inhibition at 10 µM [2] is reported as -31%, the “SI (CC50/EC50)” value [14] is reported as 2.26 and the “SI (CC50/EC50)” value [15] is reported as 2.8. For the same compound, the CC50 at 24 h (in vitro [3]) was 22 µM, the EC50 [4] was 9.7 µM and the EC50 [5] was 7.74 µM.

With O=C(NCCC1CCN(Cc2ccccc2)CC1)c1cnc(-c2ccc(OC3CCNCC3)cc2)s1 [compound 79, N-(2-(1-Benzylpiperidin-4-yl)ethyl)-2-(4-(piperidin-4-yloxy)phenyl)thiazole-5-carboxamide] the inhibition at 10 µM [2] was 39%, the “SI (CC50/EC50)” value [14] was 12 and the “SI (CC50/EC50)” value [15] was 12.8. For the same compound, the CC50 (in vitro [3]) was over 100 µM, the EC50 [4] was 8.3 µM and the EC50 [5] was 7.83 µM.
